Data on seven compounds can be found in patent US10702521B2, “Methods for treating neisseria gonorrhoeae infection with substituted 1,2-dihydro-2A,5,8A-triazaacenaphthylene-3,8-diones” (priority 2014, dated 2020).

Series [1] concerns Staphylococcus aureus, Streptococcus pneumoniae, Streptococcus pyogenes, Enterococcus faecalis, Enterococcus faecium, Haemophilus influenzae, Moraxella …. The series is described as follows: Antimicrobial Activity Assay: whole-cell MIC by broth microdilution (CLSI M7-A7). The note with it: against a strain of at least one of the organisms listed. Type of series: cell-based, Gram-positive and Gram-negative organisms. The procedure:
Whole-cell antimicrobial activity was determined by broth microdilution using the Clinical and Laboratory Standards Institute (CLSI) recommended procedure, Document M7-A7, “Methods for Dilution Susceptibility Tests for Bacteria that Grow Aerobically”. The compounds were tested in serial two-fold dilutions ranging from 0.016 to 16 mcg/ml.
The minimum inhibitory concentration (MIC) was determined as the lowest concentration of compound that inhibited visible growth. A mirror reader was used to assist in determining the MIC endpoint.
Compounds were evaluated against Gram-positive organisms, selected from Staphylococcus aureus, Streptococcus pneumoniae, Streptococcus pyogenes, Enterococcus faecalis and Enterococcus faecium.
In addition, compounds were evaluated against Gram-negative organisms selected from Haemophilus influenzae, Moraxella catarrhalis, Escherichia coli, Pseudomonas aeruginosa, Proteus mirabilis, Enterobacter cloacae, Enterobacter aerogenes, Klebsiella pneumoniae and Stenotrophomonas maltophilia.

Series [2] concerns Mycobacterium tuberculosis H37Rv. The series is described as follows: Mycobacterium tuberculosis H37Rv Inhibition Assay (resazurin MIC). Type of series: cell-based.
Series [3] has as its system Neisseria gonorrhoeae. The series is described as follows: In vitro MIC by CLSI agar dilution against Neisseria gonorrhoeae isolates. The series is classed as cell-based. Conditions: for MIC90: Neisseria gonorrhoeae. On the technique in general: Agar dilution tests growth on a series of plates holding different concentrations.
For series [4], the system named is N. gonorrhoeae MS11. The series is described as follows: MIC / susceptibility of N. gonorrhoeae MS11 (strain of the mouse model). Type of series: cell-based, Neisseria gonorrhoeae.
The test system of series [5] is N. gonorrhoeae MS11. The series is described as follows: Mouse model of N. gonorrhoeae vaginal colonization. Type of series: in vivo, mice. The note with it: for mice in which colonization with N. gonorrhoeae MS11 was eliminated by the end of the study: two studies. The procedure:
A mouse model of N. gonorrhoeae vaginal colonization was performed to evaluate the efficacy of compounds of the present invention. Two independent studies were performed by the same laboratory.
In particular, Example 39 (i.e., (2R)-2-({4-[(3,4-Dihydro-2H-pyrano[2,3-c]pyridin-6-ylmethyl)amino]-1-piperidinyl}methyl)-1,2-dihydro-3H, 8H-2a,5,8a-triazaacenaphthylene-3,8-dione hydrochloride) was tested in this model following a single oral dose or a total of two oral doses administered on the same day. Female mice were primed for colonization using estradiol; trimethoprim sulfate and streptomycin were administered to control commensals. On day 0, mice were inoculated intravaginally with N. gonorrhoeae MS11 (Example 39—MIC 1 μg/ml). Successful colonization was confirmed via vaginal swab culture on days 1 and 2. Single oral doses at 100 mg/kg and 200 mg/kg or a total of two oral doses at 100 mg/kg each of Example 39 were administered on day 2. Vaginal swabs for quantitative culture were collected daily through day 10 (8 days post treatment).

The nature of series [6]: Estimation of PK parameters from blood samples in mice. The series is classed as in vivo. Conditions: estimated. As for the experimental part: In one study, blood samples were collected terminally from a separate group of mice at 1, 2, 6 and 12 hours post Example 39 administration (n=3 per time point and dose) to allow for estimation of PK parameters.
Setting [7] is: H37Rv strain, six days incubation, resazurin fluorescence after 48 hours, read-out: MIC value.
Where [8] appears, read: 144 h, read-out: MIC value, H37Rv strain, six days incubation, resazurin fluorescence after 48 hours.

Structures can show the parent of a compound that is named as a salt. Where two headings read alike, the source gives them in different places. Bounds are passed on as bounds.

The compound `O=c1ccc2ccc(=O)n3c2n1C[C@H]3CN1CCC(NCc2cc3c(cn2)COC3)CC1` [Example 9, (1R)-1-({4-[(1,3-Dihydrofuro[3,4-c]pyridin-6-ylmethyl)amino]-1-piperidinyl}methyl)-1,2-dihydro-4H,9H-imidazo[1,2,3-ij]-1,8-naphthyridine-4,9-dione hydrochloride] yielded an MIC in series [1] of no more than 4 µg/mL.

As a reminder, the MIC90 is an inhibitory concentration at the 90% level, which refers to growth in some studies and to a panel of isolates in others. As for `O=c1ccc2ncc(=O)n3c2n1C[C@H]3CN1CCC(NCc2cc3c(cn2)OCCC3)CC1` [Example 39, (2R)-2-({4-[(3,4-Dihydro-2H-pyrano[2,3-c]pyridin-6-ylmethyl)amino]-1-piperidinyl}methyl)-1,2-dihydro-3H,8H-2a,5,8a-triazaacenaphthylene-3,8-dione hydrochloride], the MIC was less than 2 µg/mL in series [2] (setting [7]) and 1 µg/mL in series [4] (Neisseria gonorrhoeae, N. gonorrhoeae MS11). In series [3] (30 isolates of N. gonorrhoeae), the “MIC90 fold higher than that of ceftriaxone” value is “at least 16 fold”. In addition, the “MIC90 fold lower than ciprofloxacin” value in series [3] (30 isolates of N. gonorrhoeae) is listed as “at least 8 fold”. Also, the MIC90 in series [3] (30 isolates of N. gonorrhoeae collected 2003 through 2007, read-out: MIC90 (MIC which inhibits 90% of the isolates tested)) is 0.5 µg/mL; in series [3] (second study, all 145 isolates of N. gonorrhoeae, majority collected in 2013, read-out: MIC90), 0.5 µg/mL; in series [3] (second study, subset of 37 ciprofloxacin-nonsusceptible isolates, read-out: MIC90) it was 1 µg/mL. For the same compound, in series [3] (against the 9 ciprofloxacin-resistant N. gonorrhoeae tested), the “modal value (MIC)” value is “remained unchanged”. The “change in susceptibility of N. gonorrhoeae MS11 colonies recovered from treated mice” value in series [4] (compared with stock cultures of the organism) is reported as “did not demonstrate any change in susceptibility”. Also, the “course of colonization after initial clearance” value in series [5] (first study, one mouse in each dose group, not observed in the follow-up study) is “regrowth to a high number of organisms by the end of the study”. Moreover, the “mice in which colonization with N. gonorrhoeae MS11 was eliminated by the end of the study” value was 70-80% in series [5] (single oral dose of 100 mg/kg on day 2), 90-100% in series [5] (single oral dose of 200 mg/kg on day 2) and 100% in series [5] (two 100 mg/kg oral doses administered on the same day). Besides, the results for the fAUC0-24 in series [6] (single oral dose of 100 mg/kg), in series [6] (single oral dose of 200 mg/kg) and in series [6] (two 100 mg/kg oral doses on the same day) were 8000 ng·h/mL, 22000 ng·h/mL and 16000 ng·h/mL, respectively.

`O=c1ccc2ccc(=O)n3c2n1C[C@H]3CN1CCC(NCc2nc3cccc(F)c3[nH]2)CC1` [Example 46, (1R)-1-[(4-{[(4-Fluoro-1H-benzimidazol-2-yl)methyl]amino}-1-piperidinyl)methyl]-1,2-dihydro-4H,9H-imidazo[1,2,3-ij]-1,8-naphthyridine-4,9-dione dihydrochloride]: in series [2] (read-out: MIC value, H37Rv strain, six days incubation, resazurin fluorescence after 48 hours), the MIC is less than 2 µg/mL.

Take `O=c1ccc2ncc(=O)n3c2n1C[C@H]3CN1CCC(NCc2cnc3nsnc3c2)CC1` [Example 49, (2R)-2-({4-[([1,2,5]Thiadiazolo[3,4-b]pyridin-6-ylmethyl)amino]-1-piperidinyl}methyl)-1,2-dihydro-3H,8H-2a,5,8a-triazaacenaphthylene-3,8-dione]: in series [2] (144 h, H37Rv strain, six days incubation, resazurin fluorescence after 48 hours, read-out: MIC value), the MIC was less than 2 µg/mL.

As to `O=c1ccc2ccc(=O)n3c2n1C[C@H]3CN1CCC(NCc2ccc3c(c2)OCCC3)CC1` [Example 50, (1R)-1-({4-[(3,4-Dihydro-2H-chromen-7-ylmethyl)amino]-1-piperidinyl}methyl)-1,2-dihydro-4H,9H-imidazo[1,2,3-if]-1,8-naphthyridine-4,9-dione hydrochloride], the MIC in series [2] (setting [8]) was less than 2 µg/mL.

Take `N#Cc1cc(CNC2CCN(C[C@@H]3Cn4c(=O)cnc5ccc(=O)n3c54)CC2)cc2c1OCCO2` [Example 56, 7-{[(1-{[(1R)-3,8-Dioxo-1,2-dihydro-3H,8H-2a,5,8a-triazaacenaphthylen-1-yl]methyl}-4-piperidinyl)amino]methyl}-2,3-dihydro-1,4-benzodioxin-5-carbonitrile hydrochloride]: the MIC in series [2] (setting [8]) is less than 2 µg/mL.

In the case of `O=c1ccc2ccc(CNC3CCN(C[C@@H]4Cn5c(=O)ccc6ccc(=O)n4c65)CC3)cc2o1` [Example 59, (1R)-1-[(4-{[(2-Oxo-2H-chromen-7-yl)methyl]amino}-1-piperidinyl)methyl]-1,2-dihydro-4H,9H-imidazo[1,2,3-ij]-1,8-naphthyridine-4,9-dione], the MIC in series [2] (setting [7]) was less than 2 µg/mL.
